We go through eleven compounds from patent publication US8906904B2, “Alkoxy pyrazoles as soluble guanylate cyclase activators” (Boehringer Ingelheim International GmbH, priority 2012, dated 2014).

Each structure is given as a SMILES string.

Data set [1] addresses T1, human soluble guanylate cyclase alpha 1 and beta 1 subunits (sGC) (Homo sapiens, UniProt Q02108+Q02153).
T1 construct: expressed in transfected cells; host or cells: Chinese hamster ovary (CHO) cells, stably transfected
T1 sequence (Q02108 1-690): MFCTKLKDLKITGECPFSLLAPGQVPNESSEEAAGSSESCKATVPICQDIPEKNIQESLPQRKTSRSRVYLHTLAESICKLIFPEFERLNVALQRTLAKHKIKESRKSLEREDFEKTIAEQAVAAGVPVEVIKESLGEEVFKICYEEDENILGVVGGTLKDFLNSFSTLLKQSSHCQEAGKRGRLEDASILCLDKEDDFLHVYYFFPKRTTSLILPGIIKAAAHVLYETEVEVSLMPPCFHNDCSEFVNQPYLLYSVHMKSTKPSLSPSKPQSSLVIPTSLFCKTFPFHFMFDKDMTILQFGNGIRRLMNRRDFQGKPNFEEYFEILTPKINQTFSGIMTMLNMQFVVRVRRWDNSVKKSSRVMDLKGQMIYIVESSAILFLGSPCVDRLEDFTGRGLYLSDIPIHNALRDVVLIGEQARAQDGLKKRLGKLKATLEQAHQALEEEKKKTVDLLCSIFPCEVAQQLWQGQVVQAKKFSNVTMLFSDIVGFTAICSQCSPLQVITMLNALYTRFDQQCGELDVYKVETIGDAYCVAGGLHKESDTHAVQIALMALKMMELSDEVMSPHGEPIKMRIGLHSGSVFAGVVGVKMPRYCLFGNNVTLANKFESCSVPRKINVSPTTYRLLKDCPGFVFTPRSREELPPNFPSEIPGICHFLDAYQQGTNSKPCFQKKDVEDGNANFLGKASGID
T1 sequence (Q02153 1-619): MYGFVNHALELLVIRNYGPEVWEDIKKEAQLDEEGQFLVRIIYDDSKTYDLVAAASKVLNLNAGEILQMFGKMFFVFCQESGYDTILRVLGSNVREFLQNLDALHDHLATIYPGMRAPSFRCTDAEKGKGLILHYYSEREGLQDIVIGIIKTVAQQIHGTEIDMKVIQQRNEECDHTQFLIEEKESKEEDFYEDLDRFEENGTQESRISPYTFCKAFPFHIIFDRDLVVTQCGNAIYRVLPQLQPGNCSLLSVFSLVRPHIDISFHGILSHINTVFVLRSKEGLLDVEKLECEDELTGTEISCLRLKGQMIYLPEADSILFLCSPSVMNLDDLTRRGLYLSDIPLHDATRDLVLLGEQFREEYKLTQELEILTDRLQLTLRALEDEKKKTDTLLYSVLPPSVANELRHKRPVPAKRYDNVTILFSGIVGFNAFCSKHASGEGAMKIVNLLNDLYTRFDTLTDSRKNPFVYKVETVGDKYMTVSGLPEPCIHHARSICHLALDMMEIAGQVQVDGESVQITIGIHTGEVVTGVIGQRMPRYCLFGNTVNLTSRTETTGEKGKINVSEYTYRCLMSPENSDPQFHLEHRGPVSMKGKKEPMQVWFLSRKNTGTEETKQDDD
Briefly: sGC cellular activator assay (cGMP, HTRF). Format: cell-based. The following applies: CHO cells stably expressing human sGC alpha 1/beta 1, preincubated with 40 microM ODQ; cGMP readout; assay run with and without 50% human serum, Table 2 does not say which. The gist of the method:
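Heme-oxidized conditions: ODQ (40 microM, 1 h) pretreatment of CHO cells stably expressing human α1/β1 sGC, in buffer containing 0.1% BSA and IBMX.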
Background: TR-FRET usually uses a lanthanide donor and a delayed reading to cut background.

A short description of data set [2]: human liver microsome (HLM) metabolic stability assay. Format: in vitro ADME. The following applies: human liver microsomes; % hepatic blood flow calculated from t1/2. The gist of the method: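 Compounds at 1 uM incubated with human liver microsomes plus NADPH at 37° C., sampled at 0, 5, 15, 30 and 60 min into cold acetonitrile and quantified by LC/MS/MS. t½ from the slope of ln % remaining vs time; CLint, CLh and % Qh derived from it (n=1).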

Broadly, the EC50 is the midpoint of the concentration-response curve. Read a high EC50 as weaker potency. Regarding `CCOc1c(C(=O)O)cnn1-c1cccc(-c2cccc(C)c2OCc2cc(C)c3c(c2)CCN(CC2COCCO2)C3)n1` (stereo not shown) [Compound 243], in data set [1], the EC50 is 16 nM. Also, the “HLM (% Qh)” value in data set [2] is below 24 % Qh.

`COCC(C)N1CCc2cc(COc3c(C)cccc3-c3cccc(-n4ncc(C(=O)O)c4OC)n3)cc(C)c2C1` (stereo not shown) [Compound 244] came in with an EC50 in data set [1] of 23 nM. In addition, the “HLM (% Qh)” value in data set [2] is reported as below 24 % Qh.

`CCOc1c(C(=O)O)cnn1-c1cccc(-c2cccc(C)c2OCc2ccc3c(c2)CCCN(C2CCCOC2)C3)n1` (stereo not shown) [Compound 245] came in with an EC50 in data set [1] of 280 nM. The “HLM (% Qh)” value in data set [2] is on record as below 24 % Qh.

`COc1c(C(=O)O)cnn1-c1cccc(-c2cccc(C)c2OCc2ccc3c(c2)CN(CC2COCCO2)C3)n1` (stereo not shown) [Compound 247] displayed an EC50 in data set [1] of 8.6 nM. In addition, the “HLM (% Qh)” value in data set [2] is below 24 % Qh.

`CCc1cc(COc2c(C)cccc2-c2cccc(-n3ncc(C(=O)O)c3OC)n2)cc2c1CN(C1CCOCC1)CC2` [Compound 248] gave an EC50 in data set [1] of 4.2 nM. For the same compound, in data set [2], the “HLM (% Qh)” value was below 24 % Qh.

Compound `CCc1cc(COc2c(C)cccc2-c2cccc(-n3ncc(C(=O)O)c3OC)n2)cc2c1CN(C1COC1)CC2` [Compound 249] registered an EC50 in data set [1] of 4.6 nM. For the same compound, the “HLM (% Qh)” value in data set [2] is below 24 % Qh.

`COc1c(C(=O)O)cnn1-c1cccc(-c2cccc(C)c2OCc2cc(C#N)c3c(c2)CCN(C2CCOCC2)C3)n1` [Compound 250] came in with an EC50 in data set [1] of 44 nM. For the same compound, the “HLM (% Qh)” value in data set [2] is below 24 % Qh.

The compound `COc1c(C(=O)O)cnn1-c1cccc(-c2cccc(C)c2OCc2ccc3c(c2F)CCN([C@H]2CCOC2)C3)n1` [Compound 251] returned an EC50 in data set [1] of 7 nM. Moreover, the “HLM (% Qh)” value in data set [2] is below 24 % Qh.

Compound `COc1c(C(=O)O)cnn1-c1cccc(-c2cccc(C)c2OCc2ccc3c(c2F)CCN([C@@H]2CCOC2)C3)n1` [Compound 252] came in with an EC50 in data set [1] of 10 nM. Also, the “HLM (% Qh)” value in data set [2] is on record as below 24 % Qh.

In turn, `COc1c(C(=O)O)cnn1-c1cccc(-c2cccc(C)c2OCc2cc(F)c3c(c2)CCN([C@@H]2CCOC2)C3)n1` [Compound 253] returned an EC50 in data set [1] of 13 nM. Further, the “HLM (% Qh)” value in data set [2] was below 24 % Qh.

In data set [1], `COc1c(C(=O)O)cnn1-c1cccc(-c2cccc(C)c2OCc2cc(F)c3c(c2)CCN([C@H]2CCOC2)C3)n1` [Compound 254] had an EC50 of 25 nM. In data set [2], the “HLM (% Qh)” value is on record as below 24 % Qh.
